Measured values published in US12655101B2, “Small molecules with antibacterial activity” (NEW MEXICO TECH UNIVERSITY RESEARCH PARK CORPORATION, priority 2021, dated 2026).
Values after ≈ are worked out from the molar mass of the structure shown. Where two headings read alike, the source gives them in different places.

Experiments:
[1] = test system: A. baumannii ATCC 1515; assay: Membrane depolarization detected by DiOC2(3); format: cell-based; details: 1xMIC; 20 μM CCCP; 25 minutes
[2] = test system: MRSA ATCC BAA-44; assay: MIC on MRSA ATCC BAA-44; format: cell-based, S. aureus; details: for MIC: Staphylococcus aureus
Method: MRSA BAA-44: MRSA ATCC BAA-44 was grown from a glycerol stock by placing a small volume of cells onto a Mueller-Hinton agar plate (MHA). The MHA plate was incubated overnight at 37° C. A single colony was used to inoculate Mueller-Hinton broth (MHB) to obtain a bacterial broth suspension. The MHB broth suspension was grown at 37° C. on a rotary shaking incubator (100 rpm) for 12 hours. The bacterial cell concentration was adjusted to ˜5×10^5 colony forming units per milliliter (CFU/mL) in MHB−/+10, 20, or 40% FBS using optical density (OD) at 595 nm. 500 μL aliquots of the adjusted bacterial cell suspension were placed into borosilicate glass tubes. The cell suspensions were treated with 100 μM compound of interest and serially diluted two-fold. The culture tubes were incubated for 18 hours at 37° C. Efficacy was either assessed visually or by adding 10% v/v MTT (5 mg/mL stock) after the 18 hour incubation period, where the cell suspensions were subsequently incubated for 10 minutes to allow the MTT reagent to carry out the colorimetric reaction.

[3] = test system: A. baumannii ATCC BAA-1797; assay: MIC on A. baumannii ATCC BAA-1797; format: cell-based
Method: A. baumannii: A. baumannii ATCC BAA-1797 was grown from a glycerol stock by placing a small volume of cells onto a MHA plate. The MHA plate was incubated overnight at 37° C. A single colony was used to inoculate MHB to obtain a bacterial broth suspension. The MHB broth suspension was grown at 37° C. on a rotary shaking incubator (100 rpm) for 12 hours. The bacterial cell concentration was adjusted to ˜5×10^5 CFU/mL in MHB or MHB+10%, 20% or 40% FBS using OD at 595 nm. 500 μL aliquots of the adjusted bacterial cell suspension were placed into borosilicate glass tubes. The cell suspensions were treated with a compound of interest, and the treatments were serially diluted two-fold. The culture tubes were incubated for 18 hours at 37° C. Efficacy was either assessed visually or by adding 10% v/v MTT (5 mg/mL stock) after the 18 hour incubation period. The cell suspensions were subsequently incubated for 10 minutes to allow the MTT reagent to carry out the colorimetric reaction. The OD was read at 595 nm.

[4] = test system: RecA-GFP fusion protein in E. coli MG1655; assay: Inhibition of norfloxacin-triggered RecA-GFP induction in E. coli MG1655; format: cell-based; details: for killing of E. coli: PME or norfloxacin 30 minutes, then compound, 3.5 hours; for SOS response (RecA-GFP induction): norfloxacin-triggered, sub-potent Polymixin E to facilitate entry
Method: An increase in DNA damage-induced RecA protein expression is required for identification and repair of DNA lesions. LexA-repressed transcription of a norfloxacin-triggered SOS response was measured by detecting an increase in RecA-GFP fusion protein fluorescence in an E. coli recombinant model. The compounds of the disclosure inhibited RecA-GFP induction and presumably, the concurrent SOS response. Inhibition of RecA-GFP expression correlated with an increase in cell death, most likely as a result of ALD activation. Sub-potent concentrations of Polymixin E were used to facilitate entry of the compounds into cells.
E. coli MG1655 was grown from a glycerol stock by placing a small volume of cells onto a MHA plate. The MHA plate was incubated overnight at 37° C. A single colony was subsequently used to inoculate MHB+10 μg/mL kanamycin to obtain a bacterial broth suspension. This was grown in at 37° C. on a rotary shaking incubator (100 rpm) for 12 hours. The bacterial cell concentration was adjusted to ˜5×10^5 colony forming units per milliliter (CFU/mL) in MHB using optical density at 595 nm. Treated cells with polymyxin E (PME) or norfloxacin (in μg/ml) at indicated concentrations for 30 minutes at 37° C. and then added a compound of the disclosure at indicated micromolar concentrations. Incubated for 3.5 hours at 37° C. Cell samples were read on the flow cytometer to detect (green fluorescent) RLU RecA expression and/or shutdown.
E. coli MG1655 was grown from a glycerol stock by placing a small volume of cells onto a MHA plate. The MHA plate was incubated overnight at 37° C. A single colony was subsequently used to inoculate MHB+10 μg/mL kanamycin to obtain a bacterial broth suspension. The MHB broth suspension was grown at 37° C. on a rotary shaking incubator (100 rpm) for 12 hours. The bacterial cell concentration was adjusted to ˜5×10^5 CFU/mL in MHB using OD at 595 nm.
Cells were treated with 0.03 μg/mL and 0.06 μg/mL norfloxacin for 30 minutes at 37° C. Then, 100 μM of the compounds were added. The cells were incubated for 3.5 hours at 37° C. 200 μL aliquots were removed and read by a flow cytometer to detect RecA production and/or shutdown. The cells were incubated for an additional 18 hours at 37° C. to assess overall toxicity.

[5] = test system: S. aureus; assay: Evolution of resistance in S. aureus over 32 days; format: cell-based; details: for MIC: Staphylococcus aureus; for development of resistance (increase in MIC): 32 days of sub-inhibitory exposure
Description: Over a period of 32 days, S. aureus cells were exposed to sub-inhibitory concentrations of the indicated compound, norfloxacin, or oxacillin and sub-cultured at the newly emerged, sub-inhibitory concentration.

[6] = 0% FBS, read-out: MIC (μM) in MDR A. baumannii ATCC 1797 0% FBS
[7] = no serum (note in the cell), read-out: MIC (μM) in MRSA BAA-44
[8] = Acinetobacter baumannii, ATCC 1797 / ATCC BAA-1797, 0% FBS, read-out: MIC (μM) in MDR A. baumannii ATCC 1797 0% FBS
[9] = Acinetobacter baumannii, ATCC 1797 / ATCC BAA-1797, read-out: MIC (μM) in MDR A. baumannii ATCC 1797 40% FBS, 40% FBS
[10] = 10% FBS, read-out: MIC (μM) in MRSA BAA-44 10% FBS
[11] = in 40% FBS (note in the cell), read-out: MIC (μM) in MRSA BAA-44
[12] = 0 h, read-out: Initial MIC Day 0

| SMILES | MIC [2, 7] [µM] | MIC [3, 8] [µM] | MIC [3, 9] [µM] | MIC [5, 12] | MIC ([5]; read-out: Final MIC Day 32) | further results |
| --- | --- | --- | --- | --- | --- | --- |
| N#CC(C#N)=NNc1cccc(Cl)c1 [CCCP, reference compound] | – | – | – | – | – | cell membrane depolarization [1]: depolarized the cell membrane |
| Brc1ccc(N/N=C/c2c[nH]c3cccc(OCc4ccccc4)c23)cc1 [Compound 34, (E)-4-(benzyloxy)-3-((2-(4-bromophenyl)hydrazineylidene)methyl)-1H-indole] | – | – | – | – | – | MIC (μM) in MRSA BAA-44 ([2]; no serum (note in the cell)): 25 (no serum) μM; MIC [3, 6]: 3 µM (≈ 1.26 µg/mL); MIC (μM) in MDR A. baumannii ATCC 1797 40% FBS [3]: 50 µM (≈ 21 µg/mL) |
| C(=N\NC1=NCCCN1)/c1c[nH]c2cccc(OCc3ccccc3)c12 [Compound 35, (E)-2-(2-((4-(benzyloxy)-1H-indol-3-yl)methylene)hydrazineyl)-3,4,5,6-tetrahydropyrimidin-1-ium 2,2,2-trifluoroacetate] | 50 (≈ 17.4 µg/mL) | > 100 | > 100 | – | – | – |
| C(=N\Nc1ncccn1)/c1c[nH]c2cccc(OCc3ccccc3)c12 [Compound 36, (E)-4-(benzyloxy)-3-((2-(pyrimidin-2-yl)hydrazineylidene)methyl)-1H-indole] | > 100 | > 100 | > 100 | – | – | – |
| FC(F)(F)c1ccc(N/N=C/c2c[nH]c3cccc(OCc4ccccc4)c23)cc1 [Compound 37, (E)-4-(benzyloxy)-3-((2-(4-(trifluoromethyl)phenyl) hydrazineylidene)methyl)-1H-indole] | 12.5 (≈ 5.12 µg/mL) | > 100 | > 100 | – | – | – |
| Nc1ccc(N/N=C/c2c[nH]c3cccc(OCc4ccccc4)c23)cc1 [Compound 38, (E)-4-(2-((4-(benzyloxy)-1H-indol-3-yl)methylene)hydrazineyl) benzenaminium chloride] | > 100 | > 100 | > 100 | – | – | – |
| CC(=O)O.Nc1ccc(N/N=C/c2c[nH]c3cccc(OCc4ccccc4)c23)cc1 [Compound 39, (E)-1-(4-aminophenyl)-2-((4-(benzyloxy)-1H-indol-3-yl)methylene)hydrazin-1-ium acetate] | – | – | – | – | – | MIC (μM) in MRSA BAA-44 ([2]; no serum (note in the cell)): 50 (no serum) μM; MIC [3, 6]: >100 µM; MIC (μM) in MDR A. baumannii ATCC 1797 40% FBS [3]: >100 µM |
| C(=N\Nc1ncccn1)/c1c[nH]c2cccc(OCc3ccccc3)c12.O=C(O)C(F)(F)F [Compound 40, (E)-2-((4-(benzyloxy)-1H-indol-3-yl)methylene)-1-(pyrimidin-2-yl)hydrazin-1-ium 2,2,2-trifluoroacetate] | – | – | – | – | – | MIC [2, 10]: > 100 µM; MIC [3, 6]: >100 µM; MIC (μM) in MDR A. baumannii ATCC 1797 40% FBS [3]: >100 µM |
| NCCCC(=O)Oc1cccc2[nH]cc(/C=N/Nc3ccc(F)cc3)c12 [Compound 41, (E)-3-((2-(4-fluorophenyl)hydrazineylidene)methyl)-1H-indol-4-yl 4-aminobutanoate] | – | 12.5 (≈ 4.43 µg/mL) | > 100 | – | – | MIC (μM) in MRSA BAA-44 ([2]; no serum (note in the cell)): 100 no serum μM |
| Cl.NCCCC(=O)Oc1cccc2[nH]cc(/C=N/Nc3ccc(F)cc3)c12 [Compound 42, (E)-4-((3-((2-(4-fluorophenyl)hydrazineylidene)methyl)-1H-indol-4-yl)oxy)-4-oxobutan-1-aminium chloride] | – | – | – | – | – | MIC ([2]; in FBS (note in the cell, percentage not given), read-out: MIC (μM) in MRSA BAA-44): 100 µM; MIC (μM) in MRSA BAA-44 ([2]; no serum (note in the cell)): <25 in no μM; MIC [3, 6]: <25 µM; MIC (μM) in MDR A. baumannii ATCC 1797 40% FBS [3]: >100 µM |
| Brc1ccc2c(N/N=C/c3c[nH]c4cccc(OCc5ccccc5)c34)ccnc2c1 [Compound 43, (E)-4-(2-((4-(benzyloxy)-1H-indol-3-yl)methylene)hydrazineyl)-7-bromoquinoline] | 6 (≈ 2.83 µg/mL) | 6 (≈ 2.83 µg/mL) | > 100 | – | – | MIC ([2]; 18 h, read-out: MIC in the presence of 40% FBS, MRSA ATCC BAA-44, 40% FBS): > 100 µM; MIC ([2]; MRSA ATCC BAA-44, absence of serum, read-out: MIC in the absence of serum): 6 µM (≈ 2.83 µg/mL); MIC [2, 11]: > 100 µM |
| Cn1cc(/C=N/Nc2ccc(F)cc2)c2c(OCc3ccccc3)cccc21 [Compound 44, (E)-4-(benzyloxy)-3-((2-(4-fluorophenyl)hydrazineylidene)methyl)-1-methyl-1H-indole] | – | < 100 | – | – | – | MIC [2, 10]: < 100 µM |
| Cn1cc(/C=N/Nc2ccc(Br)cc2)c2c(OCc3ccccc3)cccc21 [Compound 45, (E)-4-(benzyloxy)-3-((2-(4-bromophenyl)hydrazineylidene)methyl)-1-methyl-1H-indole] | 25 (≈ 10.9 µg/mL) | 25 (≈ 10.9 µg/mL) | 50 (≈ 21.7 µg/mL) | – | – | MIC [2, 11]: > 100 µM |
| Brc1ccc(/N=N/c2c[nH]c3ccccc23)cc1 [Compound 47, (E)-3-((4-bromophenyl)diazenyl)-1H-indole] | – | – | – | 4 µM | 4 µM | killing of E. coli [4]: killed E. coli; SOS response (RecA-GFP induction) [4]: inhibited the SOS response |
| Clc1ccc(/N=N/c2c[nH]c3ccccc23)cc1 [Compound 48, (E)-3-((4-chlorophenyl)diazenyl)-1H-indole] | – | – | – | 8 µM | 8 µM | – |
| Clc1ccc(Oc2c(-c3ccc(Cl)cc3)[nH]c3ccccc23)cc1 [Compound 49, 3-(4-chlorophenoxy)-2-(4-chlorophenyl)-1H-indole] | – | – | – | 2 µM | 1 µM | killing of E. coli [4]: killed E. coli; SOS response (RecA-GFP induction) [4]: inhibited the SOS response |
| Clc1ccc(Oc2c(-c3ccc(Cl)cc3)[nH]c3ccc(Cl)cc23)cc1 [Compound 50, 5-chloro-3-(4-chlorophenoxy)-2-(4-chlorophenyl)-1H-indole] | – | – | – | 0.25 to 0.5 µM | > 32 µM | – |
| CCn1cc(C(=O)O)c(=O)c2cc(F)c(N3CCNCC3)cc21 [Norfloxacin, reference compound] | – | – | – | 2 µg/mL | > 100 µg/mL | development of resistance (increase in MIC) [5]: Dramatic resistance |
| Cc1onc(-c2ccccc2)c1C(=O)N[C@@H]1C(=O)N2[C@@H]1SC(C)(C)[C@@H]2C(=O)O [Oxacillin, reference compound] | – | – | – | 0.25 µg/mL | > 200 µg/mL | development of resistance (increase in MIC) [5]: Dramatic resistance |
